According to US20240408125A1, “COMPOSITION COMPRISING POLYGALATENOSIDE AS ACTIVE INGREDIENT FOR PREVENTION OR TREATMENT OF CANCER” (HOSEO UNIVERSITY ACADEMIC COOPERATION FOUNDATION, priority 2021, published 2024):

Tests used:
Format in all cases: cell-based, Mouse
NOX2 protein = NOX2 protein expression by Western blot with densitometry relative to β-actin; settings: B16-F10 cells, FIG. 2
Procedure: (§1) B16-F10 melanoma cells were cultured under conditions of 36.5° C. and 5% CO2 using a Dulbecco's modified Eagle's medium supplemented with 10% (v/v) fetal bovine serum and 1% (v/v) penicillin-streptomycin.
B16-F10 melanoma cells were cultured for 12 hours, and then treated with polygalatenoside A at concentrations of 0, 0.1, 0.3, 1, 3, and 10 μM for 24 hours, respectively. Thereafter, the cells were washed twice with PBS, and collected, and proteins were recovered by lysing the cells with a radioimmunoprecipitation assay (RIPA) buffer containing phenylmethylsulfonyl fluoride (PMSF). 50 μg of proteins was separated by sodium dodecyl sulfate poly-acrylamide gel electrophoresis (SDS-PAGE) and then transferred to a polyvinylidene fluoride (PVDF) membrane. The membrane was treated with a tris-buffered saline (TBS; pH 7.6) containing 5% (w/v) skim milk, 0.05% (v/v) tween-20, and 0.01% (w/v) sodium azide at 25° C. for 1 hour. The membrane was washed three times with TBST (TBS containing 0.05% (v/v) tween-20) and treated with an anti-NOX2 primary antibody and a horse radish peroxidase (HRP)-conjugated secondary antibody. The protein levels were visualized using enhanced chemiluminescence (ECL) and an X-ray film. The expression level of NOX2 protein compared to β-actin was shown in FIG. 2 through a densitometry of ImageJ software.

B16-F10 melanoma cells [1] = assay: Viable cell number by trypan blue staining and hemocytometer; settings: FIG. 4
Procedure: as §1
Next, in order to measure changes in cell number, B16-F10 cells were cultured for 12 hours, and then treated with polygalatenoside A at concentrations of 0, 0.1, 0.3, 1, 3, and 10 μM for 72 hours, respectively. The cells were collected every 24 hours, stained with trypan blue, and the number of viable cells was measured using a hemocytometer, and the results were shown in FIG. 4.

B16-F10 melanoma cells [2] = assay: WST8 cell viability assay; settings: 3 μM for 48 hours, WST8, absorbance at 450 nm, FIG. 3
Procedure: as §1
B16-F10 melanoma cells were cultured in a 96-well cell culture plate for 12 hours, and then treated with polygalatenoside A at concentrations of 0, 0.1, 0.3, 1, 3, and 10 μM for 48 hours, respectively. The medium was treated with a WST8 Cell Viability Assay Reagent to a concentration of 10% (v/v) and cultured for 2 hours. Thereafter, cell viability was confirmed by measuring absorbance at 450 nm using a microplate reader, and the results were shown in FIG. 3.

## O=C(OCC1OC(OC2COC(CO)[C@@H](O)C2O)C(O)C(O)C1O)c1ccccc1 (some centres unmarked) [polygalatenoside A, Polygalatenoside A]
NOX2 protein; 3 μM for 24 hours
  expression of NOX2 compared to untreated control group (fold): about 1.4 times
NOX2 protein; 0.1-10 μM for 24 hours
  expression of NOX2 compared to untreated control group: increased
B16-F10 melanoma cells [1]; 3 μM up to 72 hours, compared with the other concentrations
  growth inhibition effect (number of viable cells): most significantly shown
B16-F10 melanoma cells [1]; 0.1-10 μM up to 72 hours, counted every 24 hours
  growth of melanoma cells (number of viable cells): inhibited
B16-F10 melanoma cells [2]
  cell viability (cell death effect): cell death effect was exhibited
